In ChEMBL document CHEMBL1201862, “PubChem BioAssay data set” (2004):
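Dose response: 5 concentrations. Exposure: 48 h. Format: 96-well plates. Endpoint: linear interpolation; highest concentration if not reached. Abbreviation: GI50, concentration required for 50% inhibition of growth.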 The source made the active and inactive calls. Rule as the data show it: active = GI50 up to about 1.1 µM and inactive = higher.

Key:
Experiment in all cases: inhibition of tumour cell growth, NCI panel, 48 h
[1] = test system: LOX IMVI
[2] = test system: RXF 393
[3] = test system: HL-60
[4] = test system: KM12
[5] = test system: SK-MEL-28
[6] = test system: UO-31
[7] = test system: SR
[8] = test system: 786-0
[9] = test system: HCT-15
[10] = test system: HT-29
[11] = test system: HCC 2998
[12] = test system: MOLT-4
[13] = test system: U-251
[14] = test system: EKVX
[15] = test system: SK-OV-3
[16] = test system: SK-MEL-2
[17] = test system: UACC-62
[18] = test system: SW-620

With `N#CC(C(=O)CCC(=O)Nc1cccc(Cl)c1)c1ccccc1` (stereo unspecified) the GI50 [1] was > 100 µM (inactive), the GI50 [2] was > 100 µM (inactive) and the GI50 [3] was > 100 µM (inactive). For the same molecule, the GI50 [4] was > 100 µM (inactive), the GI50 [5] was > 100 µM (inactive) and the GI50 [6] was > 100 µM (inactive). The GI50 [7] was > 100 µM (inactive), the GI50 [8] was > 100 µM (inactive) and the GI50 [9] was > 100 µM. For the same molecule, the GI50 [10] was > 100 µM (inactive), the GI50 [11] was > 100 µM (inactive) and the GI50 [12] was > 100 µM (inactive). The GI50 [13] was > 100 µM (inactive), the GI50 [14] was > 100 µM (inactive) and the GI50 [15] was > 100 µM (inactive). For the same molecule, the GI50 [16] was > 100 µM (inactive) and the GI50 [17] was > 100 µM (inactive).
In the case of `CCCOC(=O)C1C(c2ccc(OC)cc2)NC(c2ccc(OC)cc2)C(C(=O)OCCC)S1(=O)=O` (stereo unspecified), the GI50 [18] is reported as > 10 µM (inactive), the GI50 [1] is reported as > 10 µM (inactive) and the GI50 [2] is reported as > 10 µM (inactive). The GI50 [3] was > 100 µM (inactive), the GI50 [4] was > 10 µM (inactive) and the GI50 [5] was > 10 µM (inactive). For the same molecule, the GI50 [6] was > 10 µM (inactive), the GI50 [7] was > 100 µM (inactive) and the GI50 [8] was > 10 µM (inactive). For the same molecule, the GI50 [9] was > 10 µM, the GI50 [10] was > 10 µM (inactive) and the GI50 [11] was > 10 µM (inactive). For the same molecule, the GI50 [12] was > 10 µM (inactive), the GI50 [13] was > 10 µM (inactive) and the GI50 [14] was > 10 µM (inactive). For the same molecule, the GI50 [15] was > 100 µM (inactive), the GI50 [16] was > 10 µM (inactive) and the GI50 [17] was > 10 µM (inactive).
With `CCCCN[C@H]1C2C3CC4C5CC(C42)C1(C)C53` (stereo partly specified) the GI50 [18] was > 100 µM (inactive), the GI50 [1] was > 100 µM (inactive) and the GI50 [2] was > 100 µM (inactive). The GI50 [3] was > 100 µM (inactive), the GI50 [4] was > 100 µM (inactive) and the GI50 [5] was > 100 µM (inactive). The GI50 [6] was > 100 µM (inactive), the GI50 [7] was > 100 µM (inactive) and the GI50 [8] was > 100 µM (inactive). For the same molecule, the GI50 [9] was > 100 µM, the GI50 [10] was > 100 µM (inactive) and the GI50 [11] was > 100 µM (inactive). The GI50 [12] was > 100 µM (inactive), the GI50 [13] was > 100 µM (inactive) and the GI50 [14] was > 100 µM (inactive). For the same molecule, the GI50 [15] was > 100 µM (inactive), the GI50 [16] was > 100 µM (inactive) and the GI50 [17] was > 100 µM (inactive).
For `Cc1cc(NCCCCCCCNc2cc(C)nc3cc(N)ccc23)c2ccc(N)cc2n1`, the GI50 [1] was 21.6 µM (inactive), the GI50 [2] was 79.3 µM (inactive) and the GI50 [3] was 3.1 µM (inactive). The GI50 [4] was 20.7 µM (inactive), the GI50 [5] was 32.7 µM (inactive) and the GI50 [6] was > 100 µM (inactive). The GI50 [7] was 18.6 µM (inactive), the GI50 [8] was > 100 µM (inactive) and the GI50 [9] was > 100 µM. For the same molecule, the GI50 [10] was 34 µM (inactive), the GI50 [11] was 46.2 µM (inactive) and the GI50 [12] was 33.4 µM (inactive). For the same molecule, the GI50 [13] was 28.1 µM (inactive), the GI50 [14] was 55.6 µM (inactive) and the GI50 [15] was 40.6 µM (inactive). The GI50 [16] was 78.3 µM (inactive) and the GI50 [17] was 35.5 µM (inactive).
In the case of `NC(=S)N1N=C2c3ccccc3CC[C@H]2[C@@H]1c1ccc(Cl)cc1`, the GI50 [18] is reported as 38.4 µM (inactive), the GI50 [1] is reported as 34.8 µM (inactive) and the GI50 [2] is reported as 30 µM (inactive). For the same molecule, the GI50 [3] was 17.6 µM (inactive), the GI50 [4] was 29 µM (inactive) and the GI50 [5] was 40.8 µM (inactive). For the same molecule, the GI50 [6] was 20.8 µM (inactive), the GI50 [7] was 26.2 µM (inactive) and the GI50 [8] was 30.6 µM (inactive). The GI50 [9] was 33.3 µM, the GI50 [10] was 24.9 µM (inactive) and the GI50 [11] was 36.7 µM (inactive). For the same molecule, the GI50 [12] was 18.9 µM (inactive), the GI50 [13] was 37.8 µM (inactive) and the GI50 [14] was 37.8 µM (inactive). For the same molecule, the GI50 [15] was 36.9 µM (inactive), the GI50 [16] was 22.3 µM (inactive) and the GI50 [17] was 27.9 µM (inactive).
With `CNC(=S)OCCC(C)CCCC(C)C` (stereo unspecified) the GI50 [18] was 16.6 µM (inactive), the GI50 [1] was 13.2 µM (inactive) and the GI50 [2] was 16.2 µM (inactive). The GI50 [3] was 6.84 µM (inactive), the GI50 [4] was 14.4 µM (inactive) and the GI50 [5] was 24.7 µM (inactive). For the same molecule, the GI50 [6] was 7.16 µM (inactive), the GI50 [7] was 14 µM (inactive) and the GI50 [8] was 17.2 µM (inactive). The GI50 [9] was 14.7 µM, the GI50 [10] was 17.3 µM (inactive) and the GI50 [11] was 18 µM (inactive). The GI50 [12] was 11.2 µM (inactive), the GI50 [13] was 15.5 µM (inactive) and the GI50 [14] was 17.1 µM (inactive). The GI50 [15] was 20.9 µM (inactive), the GI50 [16] was 13.7 µM (inactive) and the GI50 [17] was 15.5 µM (inactive).
